Experimental findings from US4970153A, “Method of producing acid urease and the use of the urease” (Nagase & Co., Ltd., priority 1987, dated 1990) are described below.

Each structure is given as a SMILES string. Like-named read-outs stand apart in the source and are kept apart here.

Assay [1] addresses T1, acid-urease obtained by culturing Lactobacillus fermentum TK 1214 (Limosilactobacillus fermentum, UniProt P26929).
T1 sequence (P26929 1-573): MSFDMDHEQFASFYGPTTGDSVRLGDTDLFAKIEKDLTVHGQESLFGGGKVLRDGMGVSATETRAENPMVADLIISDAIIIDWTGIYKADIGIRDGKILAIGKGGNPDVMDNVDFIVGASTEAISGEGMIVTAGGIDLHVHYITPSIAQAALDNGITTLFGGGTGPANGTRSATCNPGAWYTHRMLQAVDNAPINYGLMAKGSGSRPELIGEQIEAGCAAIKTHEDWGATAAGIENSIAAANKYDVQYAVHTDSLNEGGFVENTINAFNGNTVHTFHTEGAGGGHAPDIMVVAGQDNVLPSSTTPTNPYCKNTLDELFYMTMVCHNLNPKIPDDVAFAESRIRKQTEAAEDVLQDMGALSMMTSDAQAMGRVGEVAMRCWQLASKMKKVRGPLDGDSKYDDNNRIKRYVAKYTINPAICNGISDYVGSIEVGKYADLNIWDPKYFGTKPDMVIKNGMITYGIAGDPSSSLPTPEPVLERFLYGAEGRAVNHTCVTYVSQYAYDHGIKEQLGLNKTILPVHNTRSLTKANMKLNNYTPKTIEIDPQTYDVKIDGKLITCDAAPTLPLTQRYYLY
T1 sequence (P26930 1-124 partner): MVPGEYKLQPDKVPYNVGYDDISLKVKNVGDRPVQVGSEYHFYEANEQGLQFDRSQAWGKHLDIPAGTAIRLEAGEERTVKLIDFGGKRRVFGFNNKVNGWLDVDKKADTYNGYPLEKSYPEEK
T1 sequence (P26931 1-100 partner): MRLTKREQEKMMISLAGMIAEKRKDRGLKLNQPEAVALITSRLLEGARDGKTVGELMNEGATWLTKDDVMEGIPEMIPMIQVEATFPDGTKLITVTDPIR
Description: Substrate specificity of acid urease (colorimetric assay of ammonia formed). The assay is classed as biochemical. Conditions: substance used as substrate of acid urease. On the procedure: (2) Substrate specificity:
(§1) by Colorimetric assay of ammonia formed by reaction with urea.
(§2) 0.1M acetate buffer (pH 4.0): 0.6 ml
(§3) React at 37° C. for 10 minutes, add 0.2 ml of 1.0N H2 SO4 and stop the reaction. Take out a part of reaction solution and give coloring by Indophenol reagent. Measure the absorbance at 630 nm, and determine quantity of decomposed urea by assaying formed ammonia.
(§4) 1 unit activity (I.U.) of acid-urease is quantity of enzyme which decomposes 1 μmole of urea at 37° C., pH 4.0 for one minute.

The target in assay [2] is T1, acid-urease obtained by culturing Lactobacillus fermentum TK 1214. As to the kind of experiment: Inhibition and activation of acid urease by additives. It is filed as biochemical. The method, then:
(5) Inhibition and activation:
as §1, §2, §3, §4

Assay [3] has the same target. Description: Stabilization of acid urease by additives (treated at 65° C. for 10 minutes). It is filed as biochemical. Conditions: additive 1 mM, not added: 80. On the procedure: (6) Stabilization (treated at 65° C. for 10 minutes):
as §1, §3

Assay [4] has as its target acid urease from Lactobacillus fermentum TK 1214 (Limosilactobacillus fermentum, UniProt P26929).
Assay [5] concerns the target neutral urease from sword beans.

For `NC(N)=O` [Urea], in assay [1], the “relevant activity (%)” value came out at 100%.

For the compound `NO` [Hydroxylamine], the “relevant activity (%)” value in assay [1] stood at 0%.

Consider `N[C@@H](CCC(=O)N[C@@H](CS)C(=O)NCC(=O)O)C(=O)O` [Glutathione], for which, in assay [2], the “Relative activity (%)” value is 100%. Moreover, the “Relative activity (%) after heat treatment” value in assay [3] is given as 100%.

`O[C@H](CS)[C@H](O)CS` [Dithiothreitol]: the “Relative activity (%) after heat treatment” value in assay [3] worked out at 100%.

As to `NC(=O)NO` [Hydroxyurea], the “relevant activity (%)” value in assay [1] was determined as 0%.

On to `O=C(NO)c1ccccc1` [Benzohydroxamic acid], for which the “relevant activity (%)” value in assay [1] is listed as 0%. Moreover, in assay [2] (additive 0.5 mM), the “Relative activity (%)” value is given as 50%.

As to `CCCCCCCC(=O)NO` [Caprilohydroxamic acid], in assay [1], the “relevant activity (%)” value was found to be 0%. The “Relative activity (%)” value in assay [2] (additive 0.04 mM) was determined as 50%.

`CCNC(N)=O` [Ethylurea]: the “relevant activity (%)” value in assay [1] was 0%.

In the case of `C=CCNC(N)=O` [Allylurea], the “relevant activity (%)” value in assay [1] was 0%.

Regarding `OCCS` [Mercapto ethanol], the “Relative activity (%)” value in assay [2] (additive 1 mM) came out at 100%. Besides, the “Relative activity (%) after heat treatment” value in assay [3] worked out at 100%.

As for `O=C(O)CN(CCN(CC(=O)O)CC(=O)O)CC(=O)O` [EDTA-4Na], in assay [3], the “Relative activity (%) after heat treatment” value came to 100%.

With `O=C([O-])c1cc[c]([Hg][Cl])cc1` [p-Chloromercuricbenzoate], the “Relative activity (%)” value in assay [2] (additive 0.05 mM) came to 50%.

For `O=C(NO)c1cccnc1` [Nicotinhydroxamic acid], in assay [1], the “relevant activity (%)” value is recorded as 0%. Besides, the “Relative activity (%)” value in assay [2] (additive 0.5 mM) is on record as 50%.

In the case of `O[C@H](CS)[C@@H](O)CS` [Dithioerithritol], the “Relative activity (%) after heat treatment” value in assay [3] stood at 100%.

For `N[C@@H](CS)C(=O)O` [Cysteine], in assay [2] (additive 1 mM), the “Relative activity (%)” value is given as 100%. Moreover, the “Relative activity (%) after heat treatment” value in assay [3] is 100%.

With `CNC(N)=O` [Methylurea], the “relevant activity (%)” value in assay [1] is listed as 0%.

Take `NC(N)=S` [Thiourea]: in assay [1], the “relevant activity (%)” value came out at 0%.

`CCO` [Ethanol]: the “Relative activity (%)” value in assay [2] turned out to be 50%. The entries for the “Ki (inhibitor constant) value against ethanol” value in assay [4] and in assay [5] were “about 40%” and “about 9%”, respectively.
